{"source": "paper PMC4191963", "about": "“DNA Binding Properties of the Actin-Related Protein Arp8 and Its Role in DNA Repair” (PLoS ONE, 2014)", "key": {"[1]": {"molecular_target": "T1, human Arp8 (Homo sapiens, UniProt Q9H981)", "T1 construct": "gene ACTR8; full length, N-terminal His6 tag removed with PreScission protease, expressed in E. coli", "assay": "agarose gel shift, loss of dsDNA binding", "conditions": "1 mM MgCl2, pH 7.5, 37 °C, phiX174 dsDNA"}, "[2]": {"molecular_target": "T2, human Arp8 (Homo sapiens, UniProt Q9H981, E266A)", "T2 construct": "gene ACTR8; full length, N-terminal His6 tag removed with PreScission protease, expressed in E. coli", "T2 sequence (Q9H981 whole entry E266A)": "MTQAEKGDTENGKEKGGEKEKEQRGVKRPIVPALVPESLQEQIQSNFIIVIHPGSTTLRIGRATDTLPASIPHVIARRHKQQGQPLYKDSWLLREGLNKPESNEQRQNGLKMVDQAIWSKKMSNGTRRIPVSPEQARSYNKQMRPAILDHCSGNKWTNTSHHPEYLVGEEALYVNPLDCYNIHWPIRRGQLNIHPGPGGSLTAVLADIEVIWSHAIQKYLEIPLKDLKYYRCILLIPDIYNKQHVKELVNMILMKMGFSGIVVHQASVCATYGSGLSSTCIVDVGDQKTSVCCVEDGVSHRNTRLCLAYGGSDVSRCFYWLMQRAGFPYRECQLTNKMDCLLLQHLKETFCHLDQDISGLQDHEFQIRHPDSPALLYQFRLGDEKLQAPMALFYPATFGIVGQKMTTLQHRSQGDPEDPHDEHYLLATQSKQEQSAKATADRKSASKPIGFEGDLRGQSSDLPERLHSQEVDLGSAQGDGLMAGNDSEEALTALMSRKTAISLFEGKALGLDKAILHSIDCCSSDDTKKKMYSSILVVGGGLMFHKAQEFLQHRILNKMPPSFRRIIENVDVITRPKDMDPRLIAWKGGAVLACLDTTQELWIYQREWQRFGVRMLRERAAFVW", "assay": "agarose gel shift, loss of dsDNA binding", "conditions": "1 mM ATP, 1 mM MgCl2, pH 7.5, 37 °C, phiX174 circular dsDNA; ATP-binding pocket"}, "[3]": {"molecular_target": "Arp8 (Homo sapiens, UniProt Q9H981 1-624)", "sequence (Q9H981 whole entry)": "as the sequence (Q9H981 whole entry E266A) above, with A266E counted along it", "assay": "competition EMSA (PAGE); 3 µM each of ssDNA, dsDNA, 3'-overhang; 250 mM NaCl; highest apparent affinity; 20 mM HEPES-NaOH pH 7.5, 160 mM NaCl (250 mM in oligonucleotide competition), 1 mM MgCl2, 1 mM DTT, 0.1 mg/ml BSA, 8% glycerol (not listed for competition), +/- 1 mM ATP or ADP, 37 C 15 min", "conditions": "protein: recombinant; tags: His6 (N-terminal) removed by PreScission; single-stranded"}}}
{"molecule": "Nc1ncnc2c1ncn2[C@@H]1O[C@H](COP(=O)(O)OP(=O)(O)OP(=O)(O)O)[C@@H](O)[C@H]1O", "note": "[ATP]", "values": [{"measurement": "agarose gel shift, loss of dsDNA binding", "setting": "[1]; 1 mM ATP, ATP-binding pocket", "result": "Addition of ATP to the binding assay mixture significantly decreased the binding of Arp8"}, {"measurement": "agarose gel shift, loss of dsDNA binding", "setting": "[2]", "result": "ATP only partially inhibited the DNA binding activity of the Arp8 E266A mutant"}]}
{"molecule": "Nc1ncnc2c1ncn2[C@@H]1O[C@H](COP(=O)(O)OP(=O)(O)O)[C@@H](O)[C@H]1O", "note": "[ADP]", "values": [{"measurement": "agarose gel shift, loss of dsDNA binding", "setting": "[1]; 1 mM ADP", "result": "addition of ADP only slightly decreased the binding of Arp8 to dsDNAs"}]}
{"molecule": "CCTCGATCCTACCAACCAGATGACGCGCTGCTACGTGCTACCGGAAGTCG (ssDNA)", "note": "[a3 ssDNA]", "values": [{"measurement": "binding result", "setting": "[3]", "result": "binds"}]}
